Assay results from patent US20240270771A1, “Compound containing phosphate group, pharmaceutical composition containing same, preparation method therefor and use thereof” (SHANGHAI RAISING PHARMACEUTICAL CO., LTD., priority 2021, published 2024).

Legend:
[1] = system: Aβ40; assay: Aβ40 content in culture supernatant of HEK293APP/sw overexpressing cells (ELISA kit); assay type: cell-based; conditions: compound 400 μM, 24 hours, adjusted by total protein concentration, blank control 127.81
Description: (§1) BCA Protein Assay Kit was purchased from Beyotime, Aβ40 and Aβ42 detection kits were purchased from Wako, and cell culture related reagents were purchased from Gibco.
(§2) HEK293APP/sw overexpressing cells were cultured in DMEM medium containing 10% FBS, 100 μg/mL G418 (Geneticin) and 1×Penicillin-Streptomycin in 48-well plates. A 4 mM compound stock solution (prepared by dissolving the compound in DMEM culture medium) was filtered through a 0.22 μm sterile filter and stored at −20° C. for subsequent use. At 70% cell density, 40 μL of the compound test solution was added to each well to reach a final concentration of 400 μM, and the plate was incubated for 24 hours.
(§3) The supernatant of the culture medium was collected. The BCA reagent was added to a part of the supernatant, after incubating at room temperature for 30 min, the absorbance value (i.e., OD value) of each well was determined by a microplate reader at 570 nm. The total protein concentration was calculated according to a protein standard curve. Meanwhile, the other part of the supernatant (100 μL) was added to a coated 96-well plate and incubated overnight at 4° C., after the solution was removed and the reagents were washed, HRP (horseradish peroxidase)-labeled antibody was added and incubated at 4° C. for 2 hours. After the reagents were removed and washed, a TMB chromogenic solution was added, the plate was incubated at room temperature for 30 min, and then a stop solution was added to stop the reaction. The absorbance value (i.e., OD value) of each well was measured by a microplate reader at 450 nm. The concentrations of Aβ40 and Aβ42 were calculated according to the standard curves of Aβ40 and Aβ42, respectively. In the end, the concentrations of Aβ40 and Aβ42 were adjusted by the total protein concentration, so as to obtain the final concentration.

[2] = system: Aβ42; assay: Aβ42 content in culture supernatant of HEK293APP/sw overexpressing cells (ELISA kit); assay type: cell-based; conditions: compound 400 μM, 24 hours, adjusted by total protein concentration, blank control 11.08
Description: as §1, §2, §3

[3] = Pharmacokinetic study, brain distribution test (TM in brain and whole blood); assay type: in vivo, SD rats; conditions: single gavage to rats, trapezoidal method, calculated after deducting the concentration at time zero
Description: The SD rats used in this test were purchased from Zhejiang Charles rive Laboratory Animal Co., Ltd. Both male and female rats of SPF grade weighting about 250 g were used.
Preparation of the test article: a proper amount of test article was weighed and ground as fine powder in a mortar. A certain amount of the vehicle was added to a proper container, and then the ground test article was added to the container under magnetic stirring. The mixture was stirred until the appearance is uniform.
The male SD rats were divided into three groups (16 rats in each group) (4 animals were sacrificed at 4 time points). […] The animals were sacrificed at 5 min, 1 h, 3 h, and 9 h after the administration. The brain was taken out immediately after sacrifice, rinsed with ice-cold water and rinsed. 50 mg of the brain tissue was weighed, added to 0.45 mL of 100 mM dipotassium hydrogen phosphate buffer (pH=5.0) and homogenized. Blood samples were taken simultaneously and anticoagulated with EDTA. After collection, blood samples were placed on ice. 150 μL of whole blood was taken and 150 μL of 5.2% perchloric acid was added to determine TM. Another 4 animals were gavage administered with normal saline for the determination of endogenous TM concentration. All samples were frozen and stored in a −80° C. refrigerator.
The concentrations of TM and TDP in the samples were determined by HPLC-FLD.
The non-compartment model of the DAS software was used to calculate the pharmacokinetic parameters of TM and TDP in blood of rats after administration. The concentration of TM in the brain tissue after the drug administration in rats was measured, and the mean value and standard deviation were calculated. The area under the drug-time curve AUC was calculated using the trapezoidal method.

[4] = system: APP/PSi 2×Tg mice; assay: Water maze behavior test; assay type: in vivo; conditions: 200 mg/kg oral gavage once a day, 8 weeks; for The number of crossing the platform: test day 6, model group 0.9 ± 0.6; for Time in the target quadrant: test day 6, model group 12.8 ± 2.9, in s
From the text: Rodents in water have a strong incentive to escape from the water environment, and can escape from the water environment in the fastest and most direct way. The process of learning to escape from the water environment reflects the learning ability of the animals. Spatial positioning according to the surrounding environment and purposefully swimming to a safe place in the water (such as a platform) can reflect the spatial learning and memory ability of the animals.
The test animals were APP/PSi 2×Tg mice (C57BL/6 wild-type mice as the blank control). Mice of 6-8 months old, weighing 20-40 g, were purchased from The Jackson laboratory.
APP/PSi mice are APP/PSi di-transgenic Alzheimer's disease (2×Tg-AD) model mice, and the appearance of deposition of Aβ is earlier than the pathological changes of tau protein for several months, which can more truly simulate the clinical process and pathological changes of Alzheimer's disease.
Preparation of 0.7% CMC-Na: 0.7 g CMC-Na was added with a proper amount of water, heated for dissolution, left for cooling to room temperature, diluted to 100 mL, and stored at 4° C.
Preparation of BTMP: 100 mg of BTMP was added to 10 mL of 0.7% CMC-Na to prepare a 10 mg/mL suspension for use.
Preparation of test compound and comparative compound 1: 100 mg of the compound to be tested was weighted and added to 10 mL of 0.7% CMC-Na to prepare a 10 mg/mL suspension for use.
The laboratory mice were randomly divided into groups (9 or 10 mice per group). Mice in each group were administrated at a dosage of 0.2 mL/10 g body weight by oral gavage once a day for eight weeks.
The mice in the blank control group, model group and test group were orally administrated for 8 consecutive weeks according to the above administration dosage/specification. The water maze training and test were started in the last week of administration. The water maze training and test lasted for six days, with a training period of five days and a testing period of one day. In addition, during the training and testing period of water maze (6 days in total), the indoor conditions such as lighting etc. were kept consistent, the room was kept quiet, and the interference from the environment and personnel was excluded.
2.1. Preparation before the test: a proper amount of water was put into the water maze pool with the water temperature being kept at 22±3° C. The platform was placed in a fixed position (target quadrant) and 1 cm below the water surface, and titanium dioxide was added until the water became white, so that the platform could not be seen clearly.
2.2. Training period (days 1 to 5): on each day, before the first quadrant training, each mouse was placed on the platform for 15 s (to increase the mice's sense of security on the platform), and then the mouse was put into the pool (with its head facing the pool wall) from the quadrant where the platform located, and the swimming time was set as 60 s. If the mouse found the platform within 60 s and stayed for 5 s, it was regarded as the platform being found successfully. If the mouse could not find the platform, then the time was recorded as 60 s. The mouse was guided to the platform and stayed for 20 s, the mouse was then taken out, and the quadrant training for this mouse was ended.
After the first quadrant training, the mouse was trained in the remaining three quadrants sequentially, where it is not necessary to place the mouse on the platform for 15 s before training. The training of each mouse in every two quadrants was conducted at an interval of 10-15 minute. In this way, the training was performed continuously for 5 days.
2.3. Testing period (day 6): 24 hours after the last training, the platform was removed, and the mouse was dropped at the position opposite to the quadrant where the platform previously located (i.e., the position furthest away from the platform). […]

[5] = test day 6, model group 45.0 ± 8.8, 200 mg/kg

| AUC of TM in the brain [3] [ng·h/g] | Compound | The content of Aβ40 [1] [pmol/L] | The content of Aβ42 [2] [pmol/L] | The number of crossing the platform [4] | Time in the target quadrant [4] | Latency period [4, 5] [s] | Latency period ([4]; test day 6, model group 45.0 ± 8.8) [s] |
| --- | --- | --- | --- | --- | --- | --- | --- |
|  | C/C(=C(\CCOP(=O)(O)O)SC(=O)c1ccoc1)N(C=O)Cc1cnc(C)nc1N [Compound 15, (Z)—S-(2-(N-((4-amino-2-methylpyrimidin-5-yl)methyl)formamido)-5-(phosphonooxy)pent-2-en-3-yl) furan-3-carbothioate] | 37.88 | 10.52 |  |  |  |  |
|  | C/C(=C(\CCOP(=O)(O)O)SC(=O)c1ccc(Cl)s1)N(C=O)Cc1cnc(C)nc1N [Compound 7, (Z)—S-(2-(N-((4-amino-2-methylpyrimidin-5-yl)methyl)formamido)-5-(phosphonooxy)pent-2-en-3-yl) 5-chlorothiophene-2-carbothioate] | 35.93 | 5.03 |  |  |  |  |
|  | C/C(=C(\CCOP(=O)(O)O)SC(=O)c1cc2ccccc2o1)N(C=O)Cc1cnc(C)nc1N [Compound 13, (Z)—S-(2-(N-((4-amino-2-methylpyrimidin-5-yl)methyl)formamido)-5-(phosphonooxy)pent-2-en-3-yl) benzofuran-2-carbothioate] | 43.76 | 7.21 |  |  |  |  |
| 739.9 | C/C(=C(\CCOP(=O)(O)O)SC(=O)c1ccccc1)N(C=O)Cc1cnc(C)nc1N [BTMP, benfotiamine, reference compound] |  |  | 2.1 ± 0.6 | 18.0 ± 3.5 | 27.3 ± 1.6 |  |
|  | COc1ccc2oc(C(=O)S/C(CCOP(=O)(O)O)=C(/C)N(C=O)Cc3cnc(C)nc3N)cc2c1 [Compound 8, (Z)—S-(2-(N-((4-amino-2-methylpyrimidin-5-yl)methyl)formamido)-5-(phosphonooxy)pent-2-en-3-yl) 5-methoxybenzofuran-2-carbothioate] | 60.96 | 2.31 |  |  |  |  |
| 555.9 | CCCCC(CC)C(=O)S/C(CCOP(=O)(O)O)=C(/C)N(C=O)Cc1cnc(C)nc1N (stereo not drawn) [Comparative compound 2, reference compound] |  |  |  |  |  |  |
|  | C/C(=C(\CCOP(=O)(O)O)SC(=O)C(C)C)N(C=O)Cc1cnc(C)nc1N [Comparative compound 1, reference compound] |  |  | 2.1 ± 0.6 | 18.1 ± 2.8 | 27.0 ± 1.3 |  |
|  | C/C(=C(\CCOP(=O)(O)O)SC(=O)OCCc1ccccc1)N(C=O)Cc1cnc(C)nc1N [Compound 5, (Z)—S-(2-(N-((4-amino-2-methylpyrimidin-5-yl)methyl)formamido)-5-(phosphonooxy)pent-2-en-3-yl) O-phenethyl carbonothioate] | 48.94 | 4.92 | 2.2 ± 0.7 | 17.7 ± 2.6 |  | 25.0 ± 2.2 |
